The values below come from article PMC7232442, “Biofilm Eradication by Symmetrical Selenoesters for Food-Borne Pathogens” (Microorganisms, 2020).

The test system of test [1] is S. aureus MRSA 272123. Put plainly: Real-time ethidium bromide accumulation assay. Type of test: cell-based, Staphylococcus aureus. The settings on record: S. aureus MRSA 272123; ½ MIC; minute 60. As for the experimental part:
(§1) The impact of compounds on EB accumulation was determined by the automated EB method using a CLARIOstar Plus plate reader (BMG Labtech, UK). Firstly, the bacterial strain was incubated until it reached an optical density (OD) of 0.6 at 600 nm. The culture was washed with phosphate buffered saline (PBS; pH 7.4) and centrifuged at 13,000× g for 3 min, the cell pellet was re-suspended in PBS. The compounds were added at ½ MIC concentration to PBS containing a non-toxic concentration of EB (1 µg/mL). Then, 50 μL of the EB solution containing the compound were transferred into 96-well black microtiter plate (Greiner Bio-One Hungary Kft, Hungary), and 50 μL of bacterial suspension (OD600 0.6) were added to the each well. Then, the plates were placed into the CLARIOstar plate reader, and the fluorescence was monitored at excitation and emission wavelengths of 530 nm and 600 nm every minute for one hour on a real-time basis. From the real-time data, the activity of the compounds, namely the relative fluorescence index (RFI) of the last time point (minute 60) of the EB accumulation assay, was calculated according to the following formula:RFI = (RFtreated − RFuntreated)/RFuntreated(2) where RFtreated is the relative fluorescence (RF) at the last time point of EB retention curve in the presence of an inhibitor, and RFuntreated is the RF at the last time point of the EB retention curve of the untreated control having the solvent control (DMSO).

Test [2] has as its system S. Typhimurium SE03 ΔacrA. Put plainly: Real-time ethidium bromide accumulation assay. Type of test: cell-based, Salmonella enterica serovar Typhimurium. The settings on record: S. Typhimurium SE03 ΔacrA; ½ MIC; minute 60. As to the method: as §1
The subject of test [3] is S. Typhimurium SE39 ΔtolC. Briefly: Real-time ethidium bromide accumulation assay. Type of test: cell-based, Salmonella enterica serovar Typhimurium. The settings on record: S. Typhimurium SE39 ΔtolC; ½ MIC; minute 60. As for the experimental part: as §1
In test [4] the test system is S. Typhimurium SE39 ΔtolC. Briefly: MIC determination by microdilution method. Type of test: cell-based, Salmonella enterica serovar Typhimurium. The settings on record: Salmonella enterica. As to the method: (§2) The minimum inhibitory concentrations (MICs) of compounds were determined according to the Clinical and Laboratory Standard Institute guidelines (CLSI). MIC values of the compounds were determined by visual inspection. The solvent was also assayed to ensure there was no antibacterial effect and the concentration (1 v/v%) applied in the assays had no antibacterial activity. DMSO was used at subinhibitory concentration (1 v/v%) in the assays.
In general terms: In broth dilution the organism is exposed to a series of concentrations in liquid medium.

Test [5] relates to S. Typhimurium SE01 Wild-Type. Briefly: MIC determination by microdilution method. Type of test: cell-based, Salmonella enterica serovar Typhimurium. The note with it: Salmonella enterica; S. Typhimurium SE01 wild-type; read-out: MIC. As to the method: as §2
Test [6] has as its system S. Typhimurium SE02 ΔacrB. Briefly: Real-time ethidium bromide accumulation assay. Type of test: cell-based, Salmonella enterica serovar Typhimurium. The note with it: S. Typhimurium SE02 ΔacrB; ½ MIC; minute 60. As for the experimental part:
as §1

Test [7] concerns S. Typhimurium SE01 Wild-Type. Put plainly: Real-time ethidium bromide accumulation assay. Type of test: cell-based, Salmonella enterica serovar Typhimurium. The settings on record: ½ MIC, minute 60. As for the experimental part:
as §1

For test [8], the system named is S. aureus ATCC 25923. Briefly: Real-time ethidium bromide accumulation assay. Type of test: cell-based, Staphylococcus aureus. Also noted: key to Relative Fluorescence Index (RFI): RFI = (RFtreated − RFuntreated)/RFuntreated at minute 60. The settings on record: S. aureus ATCC 25923; ½ MIC; minute 60. As for the experimental part: as §1
In test [9] the test system is S. aureus MRSA 272123. Briefly: MIC determination by microdilution method. Type of test: cell-based. The settings on record: Staphylococcus aureus; S. aureus MRSA 272123; read-out: MIC. As for the experimental part: as §2
Test [10] deals with Staphylococcus aureus ATCC 25923. Put plainly: MIC determination by microdilution method. Type of test: cell-based. The note with it: S. aureus ATCC 25923. As for the experimental part:
as §2

The test system of test [11] is MRC-5 human embryonal lung fibroblast cells. Put plainly: Cytotoxicity assay (MTT). Type of test: cell-based. The note with it: Homo sapiens, MRC5, 24 h, MRC-5 cells. As for the experimental part:
The adherent MRC-5 human embryonal lung fibroblast cells were cultured in 96-well flat-bottomed microtiter plates, using EMEM supplemented with 10% heat-inactivated fetal bovine serum. The density of the cells was adjusted to 1 × 10^4 cells in 100 μL per well, the cells were seeded overnight at 37 °C, 5% CO2, then the medium was removed from the plates containing the cells, and the dilutions of selenocompounds previously made in a separate plate were added to the cells in 200 μL.
The culture plates were incubated at 37 °C for 24 h; at the end of the incubation period, 20 μL of MTT (thiazolyl blue tetrazolium bromide, Sigma) solution (from a stock solution of 5 mg/mL) was added to each well. After incubation at 37 °C for 4 h, 100 μL of sodium dodecyl sulfate (SDS; Sigma) solution (10% in 0.01 M HCI) was added to each well and the plates were further incubated at 37 °C overnight. Cell growth was determined by measuring the optical density (OD) at 540/630 nm with Multiscan EX ELISA reader (Thermo Labsystems, Cheshire, WA, USA). Inhibition of the cell growth was determined according to the formula below:IC50 = 100 − [(ODsample − ODmedium control)/(ODcell control − ODmedium control)] × 100(1)
Results are expressed in terms of IC50, defined as the inhibitory dose that reduces the growth of the cells exposed to the tested compounds by 50%.

Test [12] deals with reference S. aureus strain (ATCC 25923). Briefly: Biofilm formation using crystal violet. Type of test: cell-based, Staphylococcus aureus. The settings on record: reference S. aureus; ½ MIC; 48 h. As for the experimental part:
(§3) The anti-biofilm effect of the tested compounds against S. aureus strains and wild-type S. Typhimurium SE01 was measured using crystal violet (CV; 0.1% (v/v)). This dye is used to detect the total biofilm biomass formed. Overnight cultures were diluted to OD of 0.1 at 600 nm in TSB medium. Then, the bacterial cultures were added to 96-well microtiter plates and the compounds were added at ½ MIC concentration. The final volume was 200 μL in each well. The microtiter plates were incubated at 30 °C for 48 h with gentle agitation (100 rpm). After the incubation period, TSB medium was discarded, and the plates were washed with tap water to remove unattached cells. Then 200 μL crystal violet was added to the wells and incubated for 15 min at room temperature. Then, CV was removed from the wells and the plates were washed again with tap water, and 200 μL of 70% ethanol was added to the wells. Finally, the biofilm formation was determined by measuring the OD at 600 nm using Multiscan EX ELISA plate reader (Thermo Labsystems, Cheshire, WA, USA). The anti-biofilm effect of compounds was expressed in the percentage (%) of decrease in biofilm formation.

The test system of test [13] is S. aureus MRSA. Put plainly: Biofilm formation using crystal violet. Type of test: cell-based, Staphylococcus aureus. As to the method:
as §3

Test [14] concerns C. violaceum 026 sensor strain with AHL producer E. cloacae 31298 (violacein production). Put plainly: Quorum sensing (QS) inhibition, parallel inoculation disk diffusion. Type of test: cell-based, Chromobacterium violaceum. The note with it: disc with 10 μL compound, starting concentration ½ MIC; 24–48 h. As to the method: The QS inhibitory effect of selenocompounds was examined on the AHL producer E. cloacae strain and C. violaceum sensor bacterial strain. These strains were inoculated in parallel. The QS inhibition was monitored by agar diffusion method on LB* agar plate as described previously. Filter paper discs (7.0 mm in diameter) were placed between the parallel inoculated strains and impregnated with 10 μL compounds. Starting concentration of the compounds was ½ MIC. The agar plates were incubated at room temperature (20 °C) for 24–48 h and the inhibition of violacein production was measured.

pIC50: −log10 of the molar value. ≈ marks a conversion by molar mass, not a printed value.

Consider `CC(=O)C[Se]C(=O)c1cccc(C(=O)[Se]CC(C)=O)c1` [Se-K2], for which the “Relative Fluorescence Index (RFI)” value in [1] was −0.07; in test [2], 0.20; in test [3], 0.26; in test [6], 0.13; in test [7], −0.04; in test [8], 0.11. In addition, the minimum inhibitory concentration (MIC) (as a rule, the least concentration at which growth counts as inhibited) in test [4] was determined as 100 µM (≈ 40.4 µg/mL); in test [5], 50 µM (≈ 20.2 µg/mL); in test [9] it was 1.56 µM (≈ 0.631 µg/mL); in [10], 0.39 µM (≈ 0.158 µg/mL); in test [10] (Staphylococcus aureus, ATCC25923) it was 0.39 µM (≈ 0.158 µg/mL). In addition, in [11], the pIC50 – broadly, −log10 of the IC50, conventionally taken in molar units – is 5.87. Moreover, the Biofilm inhibition in test [12] turned out to be 30.3%. In addition, in test [13], the “Anti-biofilm effect (in words)” value is reported as “promoted the biofilm formation”. Besides, in test [14], the “QS zone of inhibition” value is listed as 40 mm.
